Values joined by “and” are separate entries in the source; they are usually repeats but may differ in a detail not shown here. Identical values can stand only once. Like-named read-outs stand apart in the source and are kept apart here.
Legend:
human PPARα = tested on: human PPARα; set-up: method as in PMID 16038868; details: reporter cell assay; read-out: EC50, activation of transcription through human PPARα; cited from earlier work
[1] = Determination of PFOA in blood plasma (UPLC-MS/MS); assay type: in vivo, Gallus gallus domesticus; details: E12; for concentration at 5 d: chicken, plasma, other: air sac injection in ovo
Description: Controls were injected with 20 μL vehicle only (DMSO).
Plasma was collected and stored at -70°C.
The concentration of PFOA was analyzed in liver and blood plasma from control embryos and embryos exposed to PFOA (50, 250 and 1000 μg/egg). Five individual livers from each PFOA-treated group were analyzed. Very low PFOA concentrations were anticipated in the controls and therefore the amount of tissue was increased by pooling 2–3 livers, and five such pools were analyzed. Four plasma samples (50 μL) were analyzed from each group except the group exposed to 1000 μg PFOA/egg for which three samples were analyzed. Extraction blanks were included for each batch. The analyzed amount of liver homogenate was 100 mg for controls and 50 mg for PFOA-exposed embryos. Livers were homogenized using the bead mill Bullet Blender® Storm 24 (Next Advance, Inc. New York, USA) with stainless steel beads at speed 8 for 3 min. Plasma and liver samples were spiked with 50 ng of internal standard (^13C4-PFOA, Wellington, Guelph, Canada). Five milliliters of acetonitrile (Labscan, Gliwice, Poland) was added to the samples followed by vortex mixing, sonication (20 min), and centrifugation (10 000 g, 5 min). Extraction was performed twice for livers and once for plasma. One mL of supernatant from the extracts was transferred to a tube prepared with 50 mg ENVI-Carb™ 20/400 mesh (Supelco, Bellefonte, PA, USA) and 100 μL glacial acetic acid (Sigma-Aldrich). The carbon suspension was vortex mixed and then filtrated using a 0.2-μm GHP filter (Pall, East Hills, NY, USA). Filtrate (0.4 mL) was mixed with 2 ng of the recovery standard (^13C8-PFOA, Wellington Laboratories) and 0.6 mL 2 mM ammonium acetate was added. Analysis was performed using an Acquity UPLC coupled to a Xevo-TQS MS/MS (Waters Corporation, Milford, MA, USA) as described previously. The recovery standard ^13C8-PFOA was added before injection to assess the recoveries of the internal standard ^13C4-PFOA. The recoveries ranged between 75 and 94% (average 82%) for plasma and between 64 and 119% (average 84%) for liver.

chicken embryos = details: injection before start of incubation; cited from earlier work

Compound	EC50 (human PPARα)	Concentration in plasma, individual embryo ([1]; PFOA 50 µg/egg, female embryos)	Concentration in plasma, individual embryo ([1]; PFOA 50 µg/egg, male embryos)	Concentration in plasma, individual embryo ([1]; PFOA 250 µg/egg, female embryos)	Concentration in plasma, individual embryo ([1]; PFOA 250 µg/egg, male embryos)	Concentration in plasma, individual embryo ([1]; PFOA 1000 µg/egg)	concentration at 5 d ([1]; 50 μg/egg, 50 μg PFOA/egg on E7, read-out: Mean PFOA concentration in plasma)	concentration at 5 d ([1]; 50 µg/egg, PFOA 50 µg/egg, read-out: Concentration in plasma, Mean)	concentration at 5 d ([1]; 50 µg/egg, PFOA 50 µg/egg, read-out: Concentration in plasma, individual embryo)	concentration at 5 d ([1]; 250 μg/egg, 250 μg PFOA/egg on E7, read-out: Mean PFOA concentration in plasma)	concentration at 5 d ([1]; 250 µg/egg, PFOA 250 µg/egg, read-out: Concentration in plasma, Mean)	concentration at 5 d ([1]; 250 µg/egg, PFOA 250 µg/egg, read-out: Concentration in plasma, individual embryo)	concentration at 5 d ([1]; 1000 μg/egg, 1000 μg PFOA/egg on E7, read-out: Mean PFOA concentration in plasma)	concentration at 5 d ([1]; 1000 µg/egg, PFOA 1000 µg/egg, read-out: Concentration in plasma, Mean)	concentration at 5 d ([1]; 1000 µg/egg, PFOA 1000 µg/egg, read-out: Concentration in plasma, individual embryo)	Dose at which increased mortality was reported (chicken embryos)	Doses with lack of effect on hatching success or mortality (chicken embryos)	Lowest observed effect level, increased embryo mortality (chicken embryos)
O=C(O)C(F)(F)C(F)(F)C(F)(F)C(F)(F)C(F)(F)C(F)(F)C(F)(F)F [PFOA, perfluorooctanoic acid]	–	2.453 µg/mL and 2.35 µg/mL	1.759 µg/mL	8.562 µg/mL	5.531 µg/mL and 5.643 µg/mL	17.963 µg/mL and 18.228 µg/mL	2 µg/mL	2 µg/mL	1.44 µg/mL	6.3 µg/mL	6.3 µg/mL	5.48 µg/mL	18 µg/mL	17.6 µg/mL	16.7 µg/mL	5 mg/kg egg	up to 10 mg/kg egg	2 mg/kg egg
